The substances below were run on PBMCs recovered from TroVax treated patients. Conditions: from HLA-type frequency among responding patients.
Assay type: cell-based, human

Row | Substance | most likely HLA restriction
1 | 36.2: class II 5T4 20 mer peptide (details in Table 12) (LQGLPHIRVFLDNNPWVCDC) [Peptide 36.2] | DQ2, DR7, or DR53
2 | 40.2: class II 5T4 20 mer peptide (details in Table 12) (EVVQGKDRLTCAYPEKMRNR) [Peptide 40.2] | DQ6, DR15, DR51, or DR52

Same assay, conditions: positive proliferative responses

Row | Substance | responders with HLA type DQ2 out of all responders | responders with HLA type DR7 out of all responders | responders with HLA type DR53 out of all responders | responders with HLA type DQ6 out of all responders | responders with HLA type DR15 out of all responders | responders with HLA type DR51 out of all responders | responders with HLA type DR52 out of all responders
3 | 36.2: class II 5T4 20 mer peptide (details in Table 12) (LQGLPHIRVFLDNNPWVCDC) [Peptide 36.2] | 3 out of 7 | 3 out of 7 | 3 out of 7 |  |  |  | 
4 | 40.2: class II 5T4 20 mer peptide (details in Table 12) (EVVQGKDRLTCAYPEKMRNR) [Peptide 40.2] |  |  |  | 8 out of 12 | 6 out of 12 | 6 out of 12 | 6 out of 12

Same assay, conditions: responding patients with HLA type DQ2 / all responding patients; PBMCs from TroVax treated patients

Row | Substance | HLA-type distribution among positive proliferative responses: DQ2
5 | 36.2: class II 5T4 20 mer peptide (details in Table 12) (LQGLPHIRVFLDNNPWVCDC) [Peptide 36.2] | 3/7
6 | 40.2: class II 5T4 20 mer peptide (details in Table 12) (EVVQGKDRLTCAYPEKMRNR) [Peptide 40.2] | 5/12

Same assay, conditions: responding patients with HLA type DQ4 / all responding patients; PBMCs from TroVax treated patients

Row | Substance | HLA-type distribution among positive proliferative responses: DQ4
7 | 36.2: class II 5T4 20 mer peptide (details in Table 12) (LQGLPHIRVFLDNNPWVCDC) [Peptide 36.2] | 0/7
8 | 40.2: class II 5T4 20 mer peptide (details in Table 12) (EVVQGKDRLTCAYPEKMRNR) [Peptide 40.2] | 1/12

Same assay, conditions: responding patients with HLA type DQ5 / all responding patients; PBMCs from TroVax treated patients

Row | Substance | HLA-type distribution among positive proliferative responses: DQ5
9 | 36.2: class II 5T4 20 mer peptide (details in Table 12) (LQGLPHIRVFLDNNPWVCDC) [Peptide 36.2] | 2/7
10 | 40.2: class II 5T4 20 mer peptide (details in Table 12) (EVVQGKDRLTCAYPEKMRNR) [Peptide 40.2] | 2/12

Same assay, conditions: responding patients with HLA type DQ6 / all responding patients; PBMCs from TroVax treated patients

Row | Substance | HLA-type distribution among positive proliferative responses: DQ6
11 | 36.2: class II 5T4 20 mer peptide (details in Table 12) (LQGLPHIRVFLDNNPWVCDC) [Peptide 36.2] | 2/7
12 | 40.2: class II 5T4 20 mer peptide (details in Table 12) (EVVQGKDRLTCAYPEKMRNR) [Peptide 40.2] | 8/12

Same assay, conditions: responding patients with HLA type DQ7 / all responding patients; PBMCs from TroVax treated patients

Row | Substance | HLA-type distribution among positive proliferative responses: DQ7
13 | 36.2: class II 5T4 20 mer peptide (details in Table 12) (LQGLPHIRVFLDNNPWVCDC) [Peptide 36.2] | 2/7
14 | 40.2: class II 5T4 20 mer peptide (details in Table 12) (EVVQGKDRLTCAYPEKMRNR) [Peptide 40.2] | 3/12

Same assay, conditions: responding patients with HLA type DQ8 / all responding patients; PBMCs from TroVax treated patients

Row | Substance | HLA-type distribution among positive proliferative responses: DQ8
15 | 36.2: class II 5T4 20 mer peptide (details in Table 12) (LQGLPHIRVFLDNNPWVCDC) [Peptide 36.2] | 0/7
16 | 40.2: class II 5T4 20 mer peptide (details in Table 12) (EVVQGKDRLTCAYPEKMRNR) [Peptide 40.2] | 0/12

Same assay, conditions: responding patients with HLA type DQ9 / all responding patients; PBMCs from TroVax treated patients

Row | Substance | HLA-type distribution among positive proliferative responses: DQ9
17 | 36.2: class II 5T4 20 mer peptide (details in Table 12) (LQGLPHIRVFLDNNPWVCDC) [Peptide 36.2] | 2/7
18 | 40.2: class II 5T4 20 mer peptide (details in Table 12) (EVVQGKDRLTCAYPEKMRNR) [Peptide 40.2] | 2/12

Same assay, conditions: responding patients with HLA type DR1 / all responding patients; PBMCs from TroVax treated patients

Row | Substance | HLA-type distribution among positive proliferative responses: DR1
19 | 36.2: class II 5T4 20 mer peptide (details in Table 12) (LQGLPHIRVFLDNNPWVCDC) [Peptide 36.2] | 2/7
20 | 40.2: class II 5T4 20 mer peptide (details in Table 12) (EVVQGKDRLTCAYPEKMRNR) [Peptide 40.2] | 1/12

Same assay, conditions: responding patients with HLA type DR4 / all responding patients; PBMCs from TroVax treated patients

Row | Substance | HLA-type distribution among positive proliferative responses: DR4
21 | 36.2: class II 5T4 20 mer peptide (details in Table 12) (LQGLPHIRVFLDNNPWVCDC) [Peptide 36.2] | 1/7
22 | 40.2: class II 5T4 20 mer peptide (details in Table 12) (EVVQGKDRLTCAYPEKMRNR) [Peptide 40.2] | 1/12

Same assay, conditions: responding patients with HLA type DR7 / all responding patients; PBMCs from TroVax treated patients

Row | Substance | HLA-type distribution among positive proliferative responses: DR7
23 | 36.2: class II 5T4 20 mer peptide (details in Table 12) (LQGLPHIRVFLDNNPWVCDC) [Peptide 36.2] | 3/7
24 | 40.2: class II 5T4 20 mer peptide (details in Table 12) (EVVQGKDRLTCAYPEKMRNR) [Peptide 40.2] | 3/12

Same assay, conditions: responding patients with HLA type DR8 / all responding patients; PBMCs from TroVax treated patients

Row | Substance | HLA-type distribution among positive proliferative responses: DR8
25 | 36.2: class II 5T4 20 mer peptide (details in Table 12) (LQGLPHIRVFLDNNPWVCDC) [Peptide 36.2] | 0/7
26 | 40.2: class II 5T4 20 mer peptide (details in Table 12) (EVVQGKDRLTCAYPEKMRNR) [Peptide 40.2] | 1/12

Same assay, conditions: responding patients with HLA type DR9 / all responding patients; PBMCs from TroVax treated patients

Row | Substance | HLA-type distribution among positive proliferative responses: DR9
27 | 36.2: class II 5T4 20 mer peptide (details in Table 12) (LQGLPHIRVFLDNNPWVCDC) [Peptide 36.2] | 1/7
28 | 40.2: class II 5T4 20 mer peptide (details in Table 12) (EVVQGKDRLTCAYPEKMRNR) [Peptide 40.2] | 1/12

Same assay, conditions: responding patients with HLA type DR11 / all responding patients; PBMCs from TroVax treated patients

Row | Substance | HLA-type distribution among positive proliferative responses: DR11
29 | 36.2: class II 5T4 20 mer peptide (details in Table 12) (LQGLPHIRVFLDNNPWVCDC) [Peptide 36.2] | 1/7
30 | 40.2: class II 5T4 20 mer peptide (details in Table 12) (EVVQGKDRLTCAYPEKMRNR) [Peptide 40.2] | 1/12

Same assay, conditions: responding patients with HLA type DR13 / all responding patients; PBMCs from TroVax treated patients

Row | Substance | HLA-type distribution among positive proliferative responses: DR13
31 | 36.2: class II 5T4 20 mer peptide (details in Table 12) (LQGLPHIRVFLDNNPWVCDC) [Peptide 36.2] | 1/7
32 | 40.2: class II 5T4 20 mer peptide (details in Table 12) (EVVQGKDRLTCAYPEKMRNR) [Peptide 40.2] | 3/12

Same assay, conditions: responding patients with HLA type DR15 / all responding patients; PBMCs from TroVax treated patients

Row | Substance | HLA-type distribution among positive proliferative responses: DR15
33 | 36.2: class II 5T4 20 mer peptide (details in Table 12) (LQGLPHIRVFLDNNPWVCDC) [Peptide 36.2] | 2/7
34 | 40.2: class II 5T4 20 mer peptide (details in Table 12) (EVVQGKDRLTCAYPEKMRNR) [Peptide 40.2] | 6/12

Same assay, conditions: responding patients with HLA type DR17 / all responding patients; PBMCs from TroVax treated patients

Row | Substance | HLA-type distribution among positive proliferative responses: DR17
35 | 36.2: class II 5T4 20 mer peptide (details in Table 12) (LQGLPHIRVFLDNNPWVCDC) [Peptide 36.2] | 1/7
36 | 40.2: class II 5T4 20 mer peptide (details in Table 12) (EVVQGKDRLTCAYPEKMRNR) [Peptide 40.2] | 3/12

Same assay, conditions: responding patients with HLA type DR51 / all responding patients; PBMCs from TroVax treated patients

Row | Substance | HLA-type distribution among positive proliferative responses: DR51
37 | 36.2: class II 5T4 20 mer peptide (details in Table 12) (LQGLPHIRVFLDNNPWVCDC) [Peptide 36.2] | 2/7
38 | 40.2: class II 5T4 20 mer peptide (details in Table 12) (EVVQGKDRLTCAYPEKMRNR) [Peptide 40.2] | 6/12

Same assay, conditions: responding patients with HLA type DR52 / all responding patients; PBMCs from TroVax treated patients

Row | Substance | HLA-type distribution among positive proliferative responses: DR52
39 | 36.2: class II 5T4 20 mer peptide (details in Table 12) (LQGLPHIRVFLDNNPWVCDC) [Peptide 36.2] | 2/7
40 | 40.2: class II 5T4 20 mer peptide (details in Table 12) (EVVQGKDRLTCAYPEKMRNR) [Peptide 40.2] | 6/12

Same assay, conditions: responding patients with HLA type DR53 / all responding patients; PBMCs from TroVax treated patients

Row | Substance | HLA-type distribution among positive proliferative responses: DR53
41 | 36.2: class II 5T4 20 mer peptide (details in Table 12) (LQGLPHIRVFLDNNPWVCDC) [Peptide 36.2] | 3/7
42 | 40.2: class II 5T4 20 mer peptide (details in Table 12) (EVVQGKDRLTCAYPEKMRNR) [Peptide 40.2] | 4/12
